Data taken from PubChem BioAssay (NCI).
Where “and” joins values, the source holds several entries; their conditions need not be identical. Identical values can stand only once.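 Five compound concentrations were applied to cells in 96-well plates for 48 hours; endpoints were derived by simple linear interpolation of the resulting dose-response curve. GI50 is the concentration that inhibits growth by half. TGI marks complete inhibition of growth.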

Tests used:
Assay in all cases: growth of human tumour cells (NCI), 48 h
SK-MEL-5 melanoma = test system: SK-MEL-5 melanoma
SK-MEL-2 melanoma = test system: SK-MEL-2 melanoma
A549 NSCLC = test system: A549 NSCLC
DU-145 prostate = test system: DU-145 prostate
T-47D breast = test system: T-47D breast
SF-295 CNS = test system: SF-295 CNS
MALME-3M melanoma = test system: MALME-3M melanoma
M14 melanoma = test system: M14 melanoma
A498 renal = test system: A498 renal
HS 578T breast = test system: HS 578T breast

SMILES | GI50 (SK-MEL-5 melanoma) | TGI (SK-MEL-5 melanoma) | GI50 (SK-MEL-2 melanoma) | TGI (SK-MEL-2 melanoma) | GI50 (A549 NSCLC) | TGI (A549 NSCLC) | GI50 (DU-145 prostate) | TGI (DU-145 prostate) | GI50 (T-47D breast) | TGI (T-47D breast) | GI50 (SF-295 CNS) | TGI (SF-295 CNS) | GI50 (MALME-3M melanoma) [µM] | TGI (MALME-3M melanoma) | GI50 (M14 melanoma) | TGI (M14 melanoma) | GI50 (A498 renal) | TGI (A498 renal) | GI50 (HS 578T breast) | TGI (HS 578T breast)
COc1ccc2c(c1)C(=Nc1ccc(F)c(Cl)c1)c1c-2c(Nc2ccc(F)c(Cl)c2)nc2ccccc12 | > 100 µM | > 100 µM | 23.6 µM | > 71.8 µM | > 74 µM | > 100 µM | > 100 µM | > 100 µM | > 100 µM | > 100 µM | 33 µM | > 100 µM | > 100 | > 100 µM | 47.1 µM | > 100 µM | 28.1 µM | 86.8 µM | 35.3 µM | 98.5 µM
Cc1nc2sc(C(=O)Nc3cccc(Br)c3C)c(N)c2cc1C(O)c1ccccc1 (stereo not given) | 0.0468 µM | 0.263 µM | 0.249 µM | 15.7 µM | 0.0466 µM | > 100 µM | 0.0422 µM | 5.16 µM | 0.0554 µM | 67.7 µM | 0.0335 µM | 6.64 µM | 0.1 | 20.5 µM | 0.0306 µM | 14.7 µM | 0.0181 µM | 0.058 µM | 0.0345 µM | 6.04 µM
O=C1/C(=C\c2ccc(F)cc2)CN(C(=O)c2ccccc2F)C/C1=C\c1ccc(F)cc1 | 1.45 µM | 2.83 µM | 2.04 µM | 4.61 µM | 2.59 µM | 8.75 µM | 2.07 µM | 4.15 µM | 2.28 µM | 7.02 µM | 2.08 µM | 5.02 µM | 2 | 4.09 µM | 1.51 µM | 3.44 µM | 2.02 µM | 6.71 µM | 3.66 µM | 20.3 µM
CC(=Nc1ccc(N(C)C)cc1)c1ccccc1 | – | 29.7 µM | – | 29.4 µM | – | 81.9 µM | – | > 100 µM | – | 55.4 µM | – | > 100 µM | – | 25.9 µM | – | 29.9 µM | – | > 100 µM | – | 65.1 µM
CN1CCC2(CC1)N=C(SCC(=O)Nc1cnc3ccccc3c1)C(c1ccc(Br)cc1)=N2 | 1.68 µM | 3.07 µM | 1.93 µM | 3.88 µM | 5.01 µM | 17.4 µM | 3.24 µM | 10.4 µM | 2.24 µM | 7.35 µM | 1.79 µM | 3.93 µM | 1.78 | 3.36 µM | 1.71 µM | 3.16 µM | 3.96 µM | 14.9 µM | 2.23 µM | 7.27 µM
CC(C)(C)[Si](C)(C)OCC1OC(n2cnc3c(=O)[nH]cnc32)CC1O (stereo not given) | – | > 100 µM | – | > 100 µM | – | > 100 µM | – | > 100 µM | – | > 100 µM | – | > 100 µM | – | > 100 µM | – | > 100 µM | – | > 100 µM | – | > 100 µM
N#C/C(=C\c1cc(O)c(O)c(O)c1)C(N)=O | – | > 100 µM | – | > 100 µM | – | > 100 µM | – | > 100 µM | – | > 100 µM | – | > 100 µM | – | > 100 µM | – | > 100 µM | – | > 100 µM | – | > 100 µM
CC1(C)C(N2CCOCC2)CS1(=O)=O (stereo not given) | – | > 10 µM | – | > 10 µM | – | > 10 µM | – | > 10 µM | – | > 10 µM | – | > 10 µM | – | > 10 µM | – | > 10 µM | – | > 10 µM | – | > 10 µM
C=CCn1c2ccccc2c2c3c(c4c5ccccc5n(CC=C)c4c21)C(=O)N(O)C3=O | 1.79 µM | 4.1 µM | 13 µM | 46.1 µM | 4.47 µM | 55.4 µM | 3.65 µM | > 100 µM | 2.03 µM | 33.2 µM | 2.62 µM | 8.62 µM | 6.91 | 26.7 µM | 2.31 µM | 26.2 µM | 2.55 µM | 9.48 µM | 19.6 µM | > 100 µM
Cc1cc(O)ccc1C1=NN(c2ccc(S(N)(=O)=O)cc2)C(=O)CC1 | 2.1 µM and 6.78 µM | 50 µM and > 100 µM | 16.8 µM and 10.4 µM | 50 µM and 77.7 µM | 14 µM and 15.3 µM | 50 µM and > 100 µM | 15.1 µM and 46.3 µM | 50 µM and > 100 µM | 3.23 µM and 13.1 µM | 50 µM and > 100 µM | 2.21 µM and 4.82 µM | 34.7 µM and 24.3 µM | – | 50 µM and 59.7 µM | 2.55 µM and 4.48 µM | 50 µM and 81.4 µM | 9.08 µM and 77.2 µM | 50 µM and > 100 µM | 6.64 µM and 60.5 µM | 43.9 µM and > 100 µM
Cc1ccc(C[As+](c2ccccc2)(c2ccccc2)c2ccccc2)cc1 | 0.23 µM | 0.719 µM | 0.887 µM | 4.34 µM | 0.588 µM | 35.8 µM | 1.36 µM | > 56.8 µM | 0.125 µM | 10.3 µM | 0.753 µM | 4.41 µM | 0.297 | 11.6 µM | 0.704 µM | 10.8 µM | 0.581 µM | 5.07 µM | 2.19 µM | > 48.8 µM
COC(=O)[C@H](Cc1cn(C)cn1)NC(=O)[C@H](CC(=O)OCc1ccccc1)NC(=O)Nc1cc(C(F)(F)F)cc(C(F)(F)F)c1 | 12.2 µM | 24.6 µM | 3.89 µM | 12.6 µM | 11.6 µM | 25.9 µM | 6.18 µM | 19.3 µM | 7.38 µM and 4.83 µM | 18.6 µM | 10.9 µM | 24 µM | 3.28 | 10.4 µM | 3.38 µM | 11.3 µM | 12.8 µM | 25.4 µM | 2.8 µM | 8.09 µM
C/C=C(\N=C=S)C(=O)OC1C(COC(C)=O)OC([C@]2(O)CC(=O)C(=N)C(C(=O)O)=C2O)C(O)C1OC1CC(OC)C(O)([C@@H](C)OC(=O)[C@@H](C)CC)C(C)O1 (stereo not given in full) | – | 28.6 µM | – | 20 µM | – | > 80.6 µM | – | 39.2 µM | – | 42.1 µM | – | 37.2 µM | – | 22.8 µM | – | 30.9 µM | – | 62.5 µM | – | > 96.1 µM
Brc1ccccc2cc(-c3ccccc3)nc1-2 | – | 36.2 µM | – | 18.6 µM | – | 53 µM | – | > 63.3 µM | 15.7 µM | > 100 µM | – | 48.9 µM | – | 20.4 µM | – | 28.3 µM | – | 42.7 µM | – | > 100 µM
